Target: T1, human mAChR M4 (Homo sapiens, UniProt P08173)
T1 construct: expressed in transfected cells; host or cells: CHO-K1 (ATCC), stably expressing hM4 and Gqi5
T1 sequence (P08173 1-479): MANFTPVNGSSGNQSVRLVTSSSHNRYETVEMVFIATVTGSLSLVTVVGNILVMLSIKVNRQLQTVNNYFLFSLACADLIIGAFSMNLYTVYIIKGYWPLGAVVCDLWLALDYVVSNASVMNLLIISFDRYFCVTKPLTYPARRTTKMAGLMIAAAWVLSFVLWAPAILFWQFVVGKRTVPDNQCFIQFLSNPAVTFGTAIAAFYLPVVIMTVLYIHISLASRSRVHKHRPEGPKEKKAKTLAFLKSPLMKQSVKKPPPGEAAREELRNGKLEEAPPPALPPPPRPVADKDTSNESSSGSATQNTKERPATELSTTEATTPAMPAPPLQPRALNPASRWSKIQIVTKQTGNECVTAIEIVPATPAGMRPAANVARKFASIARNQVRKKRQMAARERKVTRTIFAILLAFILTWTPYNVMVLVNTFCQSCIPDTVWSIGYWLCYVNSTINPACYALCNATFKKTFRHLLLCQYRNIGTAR
Assay: mAChR M4 cell-based functional assay: calcium flux (Fluo-4, FDSS), positive allosteric modulator activity on the EC20 acetylcholine response, hM4-Gqi5 CHO-K1 cells
Parameters: Emax: dose or concentration left out as unconfirmed
Conditions: for Emax at 30 µM: CHO-K1, human M4, % ACh maximum at 30 μM; for EC50: human M4, PAM activity on EC20 acetylcholine response, calcium flux, read-out: Human M4 EC50
How it was run: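 CHO-K1 cells stably expressing human M4 with chimeric Gqi5, loaded with Fluo-4 AM for 50 min at 37° C. Compounds (11-point, 1:3 dilutions) added first, then an acetylcholine EC20 at 144 s; calcium read on FDSS at 1 Hz. EC50 is the half-maximal increase above the EC20 baseline, four-parameter logistic fit.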

Structure (SMILES): Cc1nc(N2CCc3ncc(C(F)(F)F)cc3C2)c2c(Cl)cccc2n1 [Compound 132, 5-chloro-2-methyl-4-[3-(trifluoromethyl)-7,8-dihydro-5H-1,6-naphthyridin-6-yl]quinazoline]
- Emax at 30 µM: 32%
- EC50: > 10 µM

Structure (SMILES): Fc1ccc2ncnc(N3CCc4ncc(N5CCOc6ncccc65)cc4C3)c2c1 [Compound 76, 1-[6-(6-fluoroquinazolin-4-yl)-7,8-dihydro-5H-1,6-naphthyridin-3-yl]-2,3-dihydropyrido[2,3-b][1,4]oxazine]
- Emax at 30 µM: 98%
- EC50: 0.03 µM

Structure (SMILES): Clc1ccc2ncnc(N3CCc4ncc(N5CCOc6ncccc65)cc4C3)c2c1 [Compound 105, 1-[6-(6-chloroquinazolin-4-yl)-7,8-dihydro-5H-1,6-naphthyridin-3-yl]-2,3-dihydropyrido[2,3-b][1,4]oxazine]
- Emax at 30 µM: 91%
- EC50: 0.07 µM

Structure (SMILES): Cc1nc(N2CCc3ncc(-c4ccc(C(F)(F)F)nc4)cc3C2)c2cc(Cl)ccc2n1 [Compound 4, 6-chloro-2-methyl-4-[3-[6-(trifluoromethyl)-3-pyridyl]-7,8-dihydro-5H-1,6-naphthyridin-6-yl]quinazoline]
- Emax at 30 µM: 57%
- EC50: 0.86 µM

Structure (SMILES): Cc1nc(N2CCc3ncc(N4CCOc5ncccc54)cc3C2)c2cc(C(F)(F)F)ccc2n1 [Compound 182, 1-[6-[2-methyl-6-(trifluoromethyl)quinazolin-4-yl]-7,8-dihydro-5H-1,6-naphthyridin-3-yl]-2,3-dihydropyrido[2,3-b][1,4]oxazine]
- Emax at 30 µM: 81%
- EC50: 3.3 µM

Structure (SMILES): Cc1nc(N2CCc3ncc(-c4cnn(C5CC5)c4)cc3C2)c2cc(F)ccc2n1 [Compound 5, 4-[3-(1-cyclopropylpyrazol-4-yl)-7,8-dihydro-5H-1,6-naphthyridin-6-yl]-6-fluoro-2-methyl-quinazoline]
- Emax at 30 µM: 80%
- EC50: 0.34 µM

Structure (SMILES): Cc1nc(N2CCc3ncc(-c4c(C)cnn4C)cc3C2)c2cc(Cl)ccc2n1 [Compound 256, 6-chloro-4-(3-(1,4-dimethyl-1H-pyrazol-5-yl)-7,8-dihydro-1,6-naphthyridin-6(5H)-yl)-2-methylquinazoline]
- Emax at 30 µM: 94%
- EC50: 0.14 µM

Structure (SMILES): Cc1nc(N2Cc3cc(C(F)(F)F)cnc3CC2C)c2cc(F)ccc2n1 (stereo not shown) [Compound 156, 6-fluoro-2-methyl-4-[7-methyl-3-(trifluoromethyl)-7,8-dihydro-5H-1,6-naphthyridin-6-yl]quinazoline]
- Emax at 30 µM: 99%
- EC50: 0.22 µM

Structure (SMILES): Fc1cc2ncnc(N3CCc4ncc(-n5cccn5)cc4C3)c2cc1F [Compound 238, 4-(3-(1H-pyrazol-1-yl)-7,8-dihydro-1,6-naphthyridin-6(5H)-yl)-6,7-difluoroquinazoline]
- Emax at 30 µM: 65%
- EC50: 0.22 µM

Structure (SMILES): Fc1cc2c(N3CCc4ncc(C(F)(F)F)cc4C3)nc(Cl)nc2cc1Cl [Compound 171, 2,7-dichloro-6-fluoro-4-[3-(trifluoromethyl)-7,8-dihydro-5H-1,6-naphthyridin-6-yl]quinazoline]
- Emax at 30 µM: 50%
- EC50: 1.28 µM

Structure (SMILES): Cn1nccc1Nc1cnc2c(c1)CN(c1nc(N3CCCC3)nc3ccc(F)cc13)CC2 [Compound 210, 6-(6-fluoro-2-pyrrolidin-1-yl-quinazolin-4-yl)-N-(2-methylpyrazol-3-yl)-7,8-dihydro-5H-1,6-naphthyridin-3-amine]
- Emax at 30 µM: 81%
- EC50: 0.24 µM

Structure (SMILES): Cn1nccc1Nc1cnc2c(c1)CN(c1nc(NC3CCCOC3)nc3ccc(F)cc13)CC2 (stereo not shown) [Compound 213, 6-fluoro-4-[3-[(2-methylpyrazol-3-yl)amino]-7,8-dihydro-5H-1,6-naphthyridin-6-yl]-N-tetrahydropyran-3-yl-quinazolin-2-amine]
- Emax at 30 µM: 86%
- EC50: 0.49 µM

Structure (SMILES): Cn1nc(C(F)(F)F)cc1-c1cnc2c(c1)CN(c1ncnc3ccc(F)cc13)CC2 [Compound 267, 6-fluoro-4-(3-(1-methyl-3-(trifluoromethyl)-1H-pyrazol-5-yl)-7,8-dihydro-1,6-naphthyridin-6(5H)-yl)quinazoline]
- Emax at 30 µM: 81%
- EC50: 0.2 µM

Structure (SMILES): CC1(C)CN(c2cnc3c(c2)CN(c2ncnc4ccc(F)cc24)CC3)CCO1 [Compound 103, 4-[6-(6-fluoroquinazolin-4-yl)-7,8-dihydro-5H-1,6-naphthyridin-3-yl]-2,2-dimethyl-morpholine]
- Emax at 30 µM: 63%
- EC50: 0.05 µM

Structure (SMILES): Cc1nc(N2CCc3ncc(-c4cn(C)nc4C)cc3C2)c2cc(C(F)(F)F)ccc2n1 [Compound 57, 4-[3-(1,3-dimethylpyrazol-4-yl)-7,8-dihydro-5H-1,6-naphthyridin-6-yl]-2-methyl-6-(trifluoromethyl)quinazoline]
- Emax at 30 µM: 59%
- EC50: 2.89 µM

Structure (SMILES): Cc1nc(N2CCc3ncc(-c4cc(F)ccc4C)cc3C2)c2cc(Cl)ccc2n1 [Compound 303, 6-chloro-4-(3-(5-fluoro-2-methylphenyl)-7,8-dihydro-1,6-naphthyridin-6(5H)-yl)-2-methylquinazoline]
- Emax at 30 µM: 91%
- EC50: 9.2 µM

Structure (SMILES): Cc1ccc(-c2cnc3c(c2)CN(c2ncnc4cc(F)c(F)cc24)CC3)cn1 [Compound 53, 6,7-difluoro-4-[3-(6-methyl-3-pyridyl)-7,8-dihydro-5H-1,6-naphthyridin-6-yl]quinazoline]
- Emax at 30 µM: 84%
- EC50: 0.13 µM

Structure (SMILES): CC1CCN(c2cnc3c(c2)CN(c2ncnc4ccc(F)cc24)CC3)c2ccnn21 (stereo not shown) [Compound 227, 6-fluoro-4-(3-(7-methyl-6,7-dihydropyrazolo[1,5-a]pyrimidin-4(5H)-yl)-7,8-dihydro-1,6-naphthyridin-6(5H)-yl)quinazoline]
- Emax at 30 µM: 75%
- EC50: 0.08 µM

Structure (SMILES): Cc1ccc(-c2cnc3c(c2)CN(c2ncnc4ccc(Cl)cc24)CC3)cn1 [Compound 43, 6-chloro-4-[3-(6-methyl-3-pyridyl)-7,8-dihydro-5H-1,6-naphthyridin-6-yl]quinazoline]
- Emax at 30 µM: 79%
- EC50: 0.07 µM

Structure (SMILES): Cc1ccccc1-c1cnc2c(c1)CN(c1ncnc3ccc(Cl)cc13)CC2 [Compound 300, 6-chloro-4-(3-(o-tolyl)-7,8-dihydro-1,6-naphthyridin-6(5H)-yl)quinazoline]
- Emax at 30 µM: 96%
- EC50: 3.6 µM

Structure (SMILES): Fc1ccc2ncnc(N3CCc4ncc(-c5cnn(C6CC6)c5)cc4C3)c2c1 [Compound 1, 4-[3-(1-cyclopropylpyrazol-4-yl)-7,8-dihydro-5H-1,6-naphthyridin-6-yl]-6-fluoro-quinazoline]
- Emax at 30 µM: 99%
- EC50: 0.13 µM

Structure (SMILES): C[C@H]1CCN(c2cnc3c(c2)CN(c2ncnc4ccc(F)cc24)CC3)c2ccnn21 [Compound 289, (S)-6-fluoro-4-(3-(7-methyl-6,7-dihydropyrazolo[1,5-a]pyrimidin-4(5H)-yl)-7,8-dihydro-1,6-naphthyridin-6(5H)-yl)quinazoline]
- Emax at 30 µM: 72%
- EC50: 0.49 µM

Structure (SMILES): CN1CCN(c2cnc3c(c2)CN(c2ncnc4cc(F)c(F)cc24)CC3)CC1=O [Compound 273, 4-(6-(6,7-difluoroquinazolin-4-yl)-5,6,7,8-tetrahydro-1,6-naphthyridin-3-yl)-1-methylpiperazin-2-one]
- Emax at 30 µM: 84%
- EC50: 0.88 µM

Structure (SMILES): Fc1ccc2nc(Cl)nc(N3CCc4ncc(N5CCCn6nccc65)cc4C3)c2c1 [Compound 87, 2-chloro-4-[3-(6,7-dihydro-5H-pyrazolo[1,5-a]pyrimidin-4-yl)-7,8-dihydro-5H-1,6-naphthyridin-6-yl]-6-fluoro-quinazoline]
- Emax at 30 µM: 110%
- EC50: 0.19 µM

Structure (SMILES): Cc1ccc2nc(N(C)C)nc(N3CCc4ncc(C(F)(F)F)cc4C3)c2c1 [Compound 180, N,N,6-trimethyl-4-[3-(trifluoromethyl)-7,8-dihydro-5H-1,6-naphthyridin-6-yl]quinazolin-2-amine]
- Emax (CHO-K1): 90%
- EC50: 0.71 µM

Structure (SMILES): Fc1ccc2ncnc(N3CCc4ncc(N5CCO[C@@H](c6ccccc6)C5)cc4C3)c2c1 [Compound 220, (S)-4-(6-(6-fluoroquinazolin-4-yl)-5,6,7,8-tetrahydro-1,6-naphthyridin-3-yl)-2-phenylmorpholine]
- Emax at 30 µM: 59%
- EC50: 1.95 µM

Structure (SMILES): Cc1nc(N2CCc3ncc(-c4cc(F)ccc4C)cc3C2)c2cc(F)ccc2n1 [Compound 295, 6-fluoro-4-(3-(5-fluoro-2-methylphenyl)-7,8-dihydro-1,6-naphthyridin-6(5H)-yl)-2-methylquinazoline]
- Emax at 30 µM: 85%
- EC50: 2.63 µM

Structure (SMILES): Cc1nc(N2CCc3ncc(-c4ccnn4C4COC4)cc3C2)c2cc(Cl)ccc2n1 [Compound 255, 6-chloro-2-methyl-4-(3-(1-(oxetan-3-yl)-1H-pyrazol-5-yl)-7,8-dihydro-1,6-naphthyridin-6(5H)-yl)quinazoline]
- Emax at 30 µM: 76%
- EC50: 0.61 µM

Structure (SMILES): Clc1nc(N2CCc3ncc(-c4cnn(C5CC5)c4)cc3C2)c2cccnc2n1 [Compound 34, 2-chloro-4-[3-(1-cyclopropylpyrazol-4-yl)-7,8-dihydro-5H-1,6-naphthyridin-6-yl]pyrido[2,3-d]pyrimidine]
- Emax at 30 µM: 53%
- EC50: 0.6 µM
